Experimental data published in patent US20140249135A1, “PIM KINASE INHIBITORS AND METHODS OF THEIR USE” (NOVARTIS AG, priority 2007, published 2014).
Read-outs that look alike come from different tables or passages of the source.

Assays:
[1] = target: Pim1 kinase (Homo sapiens, UniProt P11309); assay: Pim1 ATP depletion assay; assay type: biochemical; conditions: Pim1 ATP depletion assay;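 further: Luciferase-luciferin luminescence readout of residual ATP after PIM1 transfers phosphate to a peptide substrate, 40 µM ATP added, reaction run to roughly half ATP consumption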
[2] = target: Pim2 kinase (Homo sapiens, UniProt Q9P1W9); assay: Pim2 ATP depletion assay; assay type: biochemical;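 further: Luciferase-based luminescent readout of ATP remaining after PIM2 phosphorylates a BAD peptide, final 5 nM enzyme, 4 µM ATP, 10 µM peptide, 2.5% DMSO, run to roughly half ATP consumption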
[3] = target: KDR kinase (Homo sapiens, UniProt P35968); assay: KDR AlphaScreen assay; conditions: KDR IC50 (μM)
[4] = target: Pim3 kinase (Homo sapiens, UniProt Q86V86); assay: Pim3 ATP depletion assay; assay type: biochemical

KDR kinase, sequence (P35968 20-1356): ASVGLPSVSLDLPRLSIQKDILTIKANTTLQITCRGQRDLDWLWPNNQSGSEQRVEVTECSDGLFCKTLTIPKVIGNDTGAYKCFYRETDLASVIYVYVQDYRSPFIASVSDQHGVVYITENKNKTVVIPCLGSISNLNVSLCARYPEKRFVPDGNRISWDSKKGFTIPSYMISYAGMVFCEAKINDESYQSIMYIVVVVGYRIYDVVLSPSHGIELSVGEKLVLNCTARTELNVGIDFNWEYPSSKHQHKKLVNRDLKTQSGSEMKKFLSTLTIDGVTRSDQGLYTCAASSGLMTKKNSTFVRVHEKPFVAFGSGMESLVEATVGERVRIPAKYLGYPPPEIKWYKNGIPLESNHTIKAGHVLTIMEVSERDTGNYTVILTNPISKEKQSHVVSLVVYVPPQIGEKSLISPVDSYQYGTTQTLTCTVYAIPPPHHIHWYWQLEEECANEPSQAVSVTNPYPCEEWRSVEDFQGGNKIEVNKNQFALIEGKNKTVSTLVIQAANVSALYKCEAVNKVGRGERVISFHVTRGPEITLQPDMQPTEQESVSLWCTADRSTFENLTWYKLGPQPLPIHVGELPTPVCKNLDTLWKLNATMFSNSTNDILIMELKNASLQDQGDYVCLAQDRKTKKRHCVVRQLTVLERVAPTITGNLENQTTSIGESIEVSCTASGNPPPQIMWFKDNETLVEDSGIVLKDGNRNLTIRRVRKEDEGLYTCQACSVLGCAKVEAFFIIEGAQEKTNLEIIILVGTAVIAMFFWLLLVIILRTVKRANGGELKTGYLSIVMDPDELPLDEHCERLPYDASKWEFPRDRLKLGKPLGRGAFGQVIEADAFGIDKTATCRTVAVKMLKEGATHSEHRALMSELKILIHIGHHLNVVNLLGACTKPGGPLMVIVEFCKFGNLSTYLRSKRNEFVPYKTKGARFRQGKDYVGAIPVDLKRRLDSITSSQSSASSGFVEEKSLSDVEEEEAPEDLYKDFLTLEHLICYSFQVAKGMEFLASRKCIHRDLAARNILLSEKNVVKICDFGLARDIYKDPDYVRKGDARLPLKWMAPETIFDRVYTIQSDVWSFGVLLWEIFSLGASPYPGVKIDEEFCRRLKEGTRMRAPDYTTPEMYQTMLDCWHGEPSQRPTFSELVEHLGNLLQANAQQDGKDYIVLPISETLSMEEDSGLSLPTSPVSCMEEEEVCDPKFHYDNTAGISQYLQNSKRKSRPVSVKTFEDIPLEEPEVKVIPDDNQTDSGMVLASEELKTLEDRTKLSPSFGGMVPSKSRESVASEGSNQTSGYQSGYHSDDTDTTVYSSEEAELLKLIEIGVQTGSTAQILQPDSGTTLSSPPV
Pim1 kinase, sequence (P11309 whole entry): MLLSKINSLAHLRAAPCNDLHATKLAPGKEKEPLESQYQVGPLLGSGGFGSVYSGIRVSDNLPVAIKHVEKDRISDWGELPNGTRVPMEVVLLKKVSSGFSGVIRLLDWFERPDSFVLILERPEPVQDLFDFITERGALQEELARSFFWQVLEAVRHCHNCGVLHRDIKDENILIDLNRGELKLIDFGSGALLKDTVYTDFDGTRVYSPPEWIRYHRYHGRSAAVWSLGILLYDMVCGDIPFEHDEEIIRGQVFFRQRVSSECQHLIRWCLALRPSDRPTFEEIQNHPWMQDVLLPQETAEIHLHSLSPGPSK
Pim2 kinase, sequence (Q9P1W9 whole entry): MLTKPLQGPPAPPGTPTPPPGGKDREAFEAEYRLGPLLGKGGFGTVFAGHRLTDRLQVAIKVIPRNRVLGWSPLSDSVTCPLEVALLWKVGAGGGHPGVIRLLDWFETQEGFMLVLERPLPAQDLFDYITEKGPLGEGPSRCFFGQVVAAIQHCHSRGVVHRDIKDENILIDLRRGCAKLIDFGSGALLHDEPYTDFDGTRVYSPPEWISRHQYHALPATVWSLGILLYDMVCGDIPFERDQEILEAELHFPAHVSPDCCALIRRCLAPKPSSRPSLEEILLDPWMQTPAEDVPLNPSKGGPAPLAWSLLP

| Compound | IC50 ([1]; read-out: IC50 (μM) PIM1) [µM] | IC50 ([2]; read-out: IC50 (μM) PIM2) [µM] | IC50 [3] [µM] | IC50 ([4]; read-out: IC50 (μM) PIM3) [µM] | IC50 ([1]; read-out: PIM1 IC50) [µM] | IC50 ([2]; read-out: PIM2 IC50) [µM] | IC50 ([4]; read-out: PIM3 IC50) [µM] |
| --- | --- | --- | --- | --- | --- | --- | --- |
| Nc1ccc(-c2ccccc2F)nc1C(=O)Nc1cnccc1N1CCCC(O)(C(F)(F)F)C1 (stereo not shown) [Example 164, 3-Amino-6-(2-fluoro-phenyl)-pyridine-2-carboxylic acid (3-hydroxy-3-trifluoromethyl-3,4,5,6-tetrahydro-2H-[1,4′]bi-pyridinyl-3′-yl)-amide] | < 1 | < 1 | 10 to 25 | < 1 |  |  |  |
| CSc1nc(N)cc(-c2ccncc2NC(=O)c2nc(-c3c(F)cccc3F)ccc2N)n1 [Example 275, 3-Amino-6-(2,6-difluoro-phenyl)-pyridine-2-carboxylic acid [4-(6-amino-2-methylsulfanyl-pyrimidin-4-yl)-pyridin-3-yl]-amide] | < 1 | < 1 | 10 to 25 | < 1 |  |  |  |
| Nc1cc(-c2ccccc2)cnc1C(=O)Nc1cnccc1N1CCC[C@H](N)C1 [Example 264, 3-Amino-5-phenyl-pyridine-2-carboxylic acid (3-amino-3,4,5,6-tetrahydro-2H-[1,4′]bipyridinyl-3′-yl)-amide] | < 1 | < 1 | < 1 | < 1 |  |  |  |
| Cc1ccc(F)c(-c2ncc(N)c(C(=O)Nc3cnccc3N3CCC[C@H](N)C3)n2)c1 [Example 543, 5-Amino-2-(2-fluoro-5-methyl-phenyl)-pyrimidine-4-carboxylic acid (3-amino-3,4,5,6-tetrahydro-2H-[1,4′]bipyridinyl-3′-yl)-amide] |  |  | 10 to 25 |  | < 1 | < 1 | < 1 |
| Nc1cnc(-c2c(F)cccc2F)nc1C(=O)Nc1cnccc1N1CCCC(O)(C(F)(F)F)C1 (stereo not shown) [Example 165, 5-Amino-2-(2,6-difluoro-phenyl)-pyrimidine-4-carboxylic acid (3-hydroxy-3-trifluoromethyl-3,4,5,6-tetra-hydro-2H-[1,4′]bipyridinyl-3′-yl)-amide] | < 1 | < 1 | 10 to 25 | < 1 |  |  |  |
| CCCOc1ccc(F)c(-c2ncc(N)c(C(=O)Nc3cnccc3N3CCC[C@H](N)C3)n2)c1F [Example 545, 5-Amino-2-(2,6-difluoro-3-propoxy-phenyl)-pyrimidine-4-carboxylic acid (3-amino-3,4,5,6-tetrahydro-2H-[1,4′]bipyridinyl-3′-yl)-amide] |  |  | 10 to 25 |  | < 1 | < 1 | < 1 |
| CC(=O)Nc1cccc(-c2ncc(N)c(C(=O)Nc3cnccc3N3CCC[C@H](N)C3)n2)c1 [Example 544, 2-(3-Acetylamino-phenyl)-5-amino-pyrimidine-4-carboxylic acid (3-amino-3,4,5,6-tetrahydro-2H-[1,4′]bipyridinyl-3′-yl)-amide] |  |  | 10 to 25 |  | < 1 | < 1 | < 1 |
| Nc1cnc(-c2ccccc2F)nc1C(=O)Nc1cnccc1N1CCC[C@H](O)C1 [Example 649, 5-Amino-2-(2-fluoro-phenyl)-pyrimidine-4-carboxylic acid (3-hydroxy-3,4,5,6-tetrahydro-2H-[1,4′]bipyridinyl-3′-yl)-amide] |  |  | 10 to 25 |  | < 1 | < 1 | < 1 |
| Nc1cnc(-c2ccccc2)nc1C(=O)Nc1cnccc1N1CCC[C@H](N)C1 [Example 265, 5-Amino-2-phenyl-pyrimidine-4-carboxylic acid (3-amino-3,4,5,6-tetrahydro-2H-[1,4′]bipyridinyl-3′-yl)-amide] | < 1 | < 1 | 10 to 25 | < 1 |  |  |  |
| CSc1nc(N)cc(-c2ccncc2NC(=O)c2nc(-c3cc(C(=O)N(C)C)ccc3F)ccc2N)n1 [Example 535, 3-Amino-6-(5-dimethylcarbamoyl-2-fluoro-phenyl)-pyridine-2-carboxylic acid [4-(6-amino-2-methylsulfanyl-pyrimidin-4-yl)-pyridin-3-yl]-amide] |  |  | 10 to 25 |  | < 1 | < 1 | < 1 |
